Measurements published in ChEMBL document CHEMBL1127703, “Structural requirements for respiratory inhibition by rotenoids; is an intact B/C ring system essential?” (Bioorg Med Chem Lett, 1994).

Assay: Tested for the ability to block NADH dehydrogenase in a preparation of submitochondrial particles obtained from blow fly flight muscle
Format: tissue-based, Calliphoridae, Muscle tissue

Question: For `C=C(C)[C@H]1Cc2cc(C(=O)n3c(C)nc4ccccc43)ccc2O1`, which “-Log IC50” value is on record?
Answer: The value was 7.82.

Question: For `C=C(C)[C@H]1Cc2c(ccc(Cn3c(C)nc4ccccc43)c2OC)O1`, which “-Log IC50” value is on record?
Answer: Its value is 6.82.

Question: With `C=C(C)[C@H]1Cc2c(ccc(C(=O)n3c(C)nc4ccccc43)c2OC)O1` as the compound, how does the “-Log IC50” value read?
Answer: Its value is 6.6.

Question: With `COc1ccc(CC2NCCc3cc4c(cc32)C[C@H](C(C)CSc2ccccc2)O4)cc1OC` (some centres not stated) as the compound, how does the “-Log IC50” value read?
Answer: The value was 7.9.

Question: Which “-Log IC50” value does the source give for `C=C(C)[C@H]1Cc2cc3c(cc2O1)CCNC3Cc1ccc(OC)c(OC)c1` (some centres not stated) here?
Answer: Its value is 6.76.

Question: Which “-Log IC50” value does the source give for `C=C(C)[C@H]1Cc2cc(Cn3c(C)nc4ccccc43)ccc2O1` here?
Answer: The value was 7.3.

Question: With `C=C(C)[C@H]1Cc2c(ccc3c2O[C@@H]2COc4cc(OC)c(OC)cc4[C@@H]2C3=O)O1` [ROTENONE] as the compound, how does the “-Log IC50” value read?
Answer: Its value is 8.7.
